Measured values reported in patent US20110117208A1, “CHRONIC WOUND TREATMENT” (TECHNOSTICS LIMITED, priority 2008, published 2011).

How the values were obtained:
pepsin = biological target: T1, pepsin (Sus scrofa, UniProt P00791); assay: Trichloroacetic acid (TCA) precipitation assay, pepsin against haemoglobin; assay type: biochemical, porcine; settings: pH 2; FIG. 4
T1 construct: purchased Sigma-Aldrich Ltd, UK; host or cells: porcine gastric mucosa
Description: The TCA assay is based on the method described by M. L. Anson (1938). J General Physiol, 22, 79-89. The substrate, bovine haemoglobin, is digested by pepsin. Any remaining undigested haemoglobin is then precipitated with TCA to yield a supernatant which contains only products of digested haemoglobin. The concentration of haemoglobin breakdown products in the supernatant is measured spectrophotometrically and provides an indication of proteinase activity. The TCA precipitation assay was used to determine the inhibitory effect of polyphosphates and trimetaphosphate on the action of pepsin against haemoglobin.
A series of test solutions containing between 0-306 mg/ml of the proposed inhibitor were prepared. 100 μl of this test solution was then thoroughly mixed with 100 μl of pepsin solution on a vortex mixer before 1500 μl of buffered bovine haemoglobin solution was added and mixed. The inhibitor:enzyme:haemoglobin sample was then incubated in a heated water bath for 30 minutes at 37° C. The samples was then removed from the incubator, mixed with 2.0 ml TCA solution and left to stand for 30 minutes in iced water. […] The absorbance of the supernatant was measured at 280 nm (Labsystems Multiskan Ascent 354, ThermoFisher Scientific, Horsham, West Sussex, UK) using deionised water as a blank. […]

elastase = biological target: T2, elastase (Sus scrofa, UniProt P00772); assay: Elastin Congo red assay; assay type: biochemical, porcine; settings: pH 8; FIG. 12, 13, 14
T2 construct: Elastase (from porcine pancreas Type I, aqueous); purchased Sigma-Aldrich Ltd, UK; host or cells: porcine pancreas
Description: Elastin Congo red is a commercially available elastin substrate impregnated with the chromophore Congo red. In the presence of elastase the Congo red dye is liberated from the elastin and the resulting colour change can be measured and correlated with elastolytic activity. The elastin Congo red assay was used to determine the inhibitory effect of polyphosphates and trimetaphosphate on the elastase against the elastin Congo red substrate.
A series of test solutions containing between 0-306 mg/ml of the proposed inhibitor were prepared. 100 μl of this test solution was then thoroughly mixed with 100 μl of elastase solution on a vortex mixer. […] of buffered Elastin Congo red solution was then added and mixed. The inhibitor:enzyme:Elastin Congo red sample was then incubated overnight in a heated water bath at 37° C. Samples were then removed from the water bath and placed in iced water to cool for 30 minutes before being centrifuged (Fisher Scientific, accuSpin Model 400 Benchtop Centrifuge) at 13000 rpm for 5 minutes. The absorbance of the supernatant was measured at 540 nm (Labsystems Multiskan Ascent 354, ThermoFisher Scientific, Horsham, West Sussex, UK) using deionised water as a blank. […]

T1 sequence (P00791 60-385): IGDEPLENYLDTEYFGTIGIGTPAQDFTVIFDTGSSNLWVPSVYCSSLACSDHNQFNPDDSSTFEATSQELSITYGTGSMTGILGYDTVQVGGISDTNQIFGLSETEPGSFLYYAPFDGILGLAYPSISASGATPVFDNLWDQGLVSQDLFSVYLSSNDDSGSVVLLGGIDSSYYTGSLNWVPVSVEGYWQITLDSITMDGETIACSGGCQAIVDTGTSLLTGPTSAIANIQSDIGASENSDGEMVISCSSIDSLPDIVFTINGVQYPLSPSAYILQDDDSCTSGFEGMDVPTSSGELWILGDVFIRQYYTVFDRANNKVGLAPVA
T2 sequence (P00772 27-266): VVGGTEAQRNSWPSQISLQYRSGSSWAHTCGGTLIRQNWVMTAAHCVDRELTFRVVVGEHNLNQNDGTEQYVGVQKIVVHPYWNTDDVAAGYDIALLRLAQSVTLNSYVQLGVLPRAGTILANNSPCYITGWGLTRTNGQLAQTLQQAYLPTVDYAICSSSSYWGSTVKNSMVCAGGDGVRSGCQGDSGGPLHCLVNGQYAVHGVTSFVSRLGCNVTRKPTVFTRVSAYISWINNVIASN

SMILES: O=P1([O-])OP(=O)([O-])OP(=O)([O-])O1.[Na+].[Na+].[Na+] [sodium trimetaphosphate]
- inhibition of pepsin (in words) (pepsin): could also inhibit pepsin across a wide concentration range; however, the potency and extent of inhibition at maximal concentrations was not as large as that observed with polyphosphates
- inhibition of elastase (in words, comparison) (elastase): could also inhibit elastase across a wide concentration range; however, the extent of inhibition at maximal concentrations was not as large as that observed with polyphosphates
